Patent publication US8637516B2 (IRM LLC, priority 2010, dated 2014)

Assays:
parental Ba/F3 cells = assay: Proliferation of parental (untransformed, wt) Ba/F3 cells (BAF3/WT); type: cell-based, murine; details: Mus musculus, Table 1, parental cells with IL3, 48 hours
Method: (§1) Compound dilutions were made in 384 well plates.
Compounds were tested for their ability to inhibit the proliferation of wt Ba/F3 cells and Ba/F3 cells transformed with constitutively expressed luciferase reporter and BCR-ABL or Tel-FMS or other Tel fusion kinases (EGFR, JAK2, ALK, BMX, FGFR3, FGFR4, FGR2, FLT1, FLT3, IGF1R, INSR, KDR, KIT, LCK, LYN, MEK, MET, PDGFRα, PDGFRβ, RET, RON, ROS, SRC, SYK, TIE and TYRO) or BRafV600E. Parental Ba/F3 cells were maintained in media containing recombinant mouse IL3 and the kinase transformed Ba/F3 cells were maintained in media without IL-3. 7.5 nl of compounds were spotted to each well of 1536-well assay plates by Liquid handling System Echo 555 (Labcyte). 700 cells were then plated into each well of the assay plates in 7 uL culture media per well and compounds were tested at 0.17 nM to 10 uM in 3-fold serial dilutions. The cells were then incubated for 48 hours at 37° C. 3 uL of Bright-Glo® (Promega) was added to each well and the plates were read using ViewLux (PerkinElmer).
(§2) The emited luminiscence is quantified using ViewLux (PerkinElmer).

[1] = biological target: T1, Ba/F3 cells transformed with human Tel-TrkA (Homo sapiens, UniProt P04629); assay: Proliferation of Ba/F3 cells transformed with human Tel-TrkA (Ba/F3 Tel-TrkA); type: cell-based; details: Table 1; 48 hours, Bright Glo luminescence; read-out: Ba/F3 Tel-TrkA
T1 construct: expressed in transfected cells; host or cells: Ba/F3 murine hematopoietic progenitor cells (luciferase expressing); the other entry of the earlier key: ETV6 (P41212, Transcription factor ETV6)
Description: as §1, §2

T1 sequence (P04629 510-796 limits assumed): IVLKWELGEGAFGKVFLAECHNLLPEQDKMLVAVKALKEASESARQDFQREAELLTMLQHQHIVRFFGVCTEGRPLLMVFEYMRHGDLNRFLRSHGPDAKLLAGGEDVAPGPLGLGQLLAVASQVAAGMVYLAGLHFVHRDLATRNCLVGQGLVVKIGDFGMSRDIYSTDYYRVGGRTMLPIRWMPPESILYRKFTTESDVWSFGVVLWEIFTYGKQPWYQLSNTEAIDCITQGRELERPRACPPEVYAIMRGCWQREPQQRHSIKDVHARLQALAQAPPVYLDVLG

Structure (SMILES)	IC50 (parental Ba/F3 cells) [µM]	IC50 [1] [µM]
CS(=O)(=O)N1CCC(NC(=O)c2cnc3ccc(N4C[C@@H](F)C[C@@H]4c4cccc(F)c4)nn23)CC1 [X-121]	5.14	0.002
COCC(=O)Nc1cnc2ccc(N3CCC[C@@H]3c3cccc(F)c3)nn12 [X-200]	> 8.83	0.023
N/C(=N\OCCO)c1cnc2ccc(N3CCC[C@@H]3c3cccc(F)c3)nn12 [X-229]	> 10	0.331
CCOC(=O)N1CCC(NC(=O)c2cnc3ccc(N4CCC[C@@H]4c4cccc(F)c4)nn23)CC1 [X-50]	> 10	0.04
O=C(NCc1ccc(N2CC[C@@H](O)C2)nc1)c1cnc2ccc(N3CCC[C@@H]3c3cccc(F)c3)nn12 [X-99]	> 10	0.731
CC(C)C[C@H](CO)NC(=O)c1cnc2ccc(N3CCC[C@@H]3c3cccc(F)c3)nn12 [X-107]	> 10	0.04
CCOC(=O)Nc1cnc2ccc(N3CCC[C@@H]3c3cccc(F)c3)nn12 [X-236, (R)-ethyl 6-(2-(3-fluorophenyl)pyrrolidin-1-yl)imidazo[1,2-b]pyridazin-3-ylcarbamate]	> 10	0.545
CC(=O)OCC(=O)Nc1cnc2ccc(N3CCC[C@@H]3c3cccc(F)c3)nn12 [X-172, (R)-2-(6-(2-(3-fluorophenyl)pyrrolidin-1-yl)imidazo[1,2-b]pyridazin-3-ylamino)-2-oxoethyl acetate]	> 10	0.038
[2H]C1([2H])N(c2ccc3ncc(C(=O)OCC)n3n2)C([2H])(c2cccc(F)c2)C([2H])([2H])C1([2H])[2H] (stereo not shown) [X-163]	> 10	0.079
CS(=O)(=O)N1CCC(NC(=O)c2cnc3ccc(N4CCC[C@@H]4c4cccc(F)c4)nn23)CC1 [X-71, (R)-6-(2-(3-fluorophenyl)pyrrolidin-1-yl)-N-(1-(methylsulfonyl)piperidin-4-yl)imidazo[1,2-b]pyridazine-3-carboxamide]	> 10	0.022
O=C(NC1CCSCC1)c1cnc2ccc(N3CCC[C@@H]3c3cccc(F)c3)nn12 [X-59]	> 10	0.036
NC(=O)CNC(=O)c1cnc2ccc(N3C[C@@H](F)C[C@@H]3c3cccc(F)c3)nn12 [X-117]	> 10	0.064
[2H]C1([2H])CC[C@H](c2cccc(F)c2)N1c1ccc2ncc(C(N)=O)n2n1 [X-11]	> 10	0.025
CC(=O)c1cnc2ccc(N3CCC[C@@H]3c3cccc(F)c3)nn12 [X-125, (R)-1-(6-(2-(3-fluorophenyl)pyrrolidin-1-yl)imidazo[1,2-b]pyridazin-3-yl)ethanone]	> 10	0.219
O=C(NCC1CCCC1)c1cnc2ccc(N3CCC[C@@H]3c3cccc(F)c3)nn12 [X-109]	7.96	0.04
O=C(NO)c1cnc2ccc(N3C[C@@H](F)C[C@@H]3c3cccc(F)c3)nn12 [X-153]	> 10	0.01
O=C(NC[C@H](O)CO)c1cnc2ccc(N3CCC[C@@H]3c3cccc(F)c3)nn12 [X-105]	> 10	0.388
CC1(C)[C@H]2CC[C@@H](CNC(=O)c3cnc4ccc(N5CCC[C@@H]5c5cccc(F)c5)nn34)[C@@H]1C2 [X-110]	> 9.76	0.207
CC(C)(C)OC(=O)N1CC(NC(=O)c2cnc3ccc(N4CCC[C@@H]4c4cccc(F)c4)nn23)C1 [X-61]	> 10	0.144
NC(=O)c1cnc2ccc(N3CCCC3c3cccc(F)c3)nn12 (stereo not shown) [X-5, 6-(2-(3-fluorophenyl)pyrrolidin-1-yl)imidazo[1,2-b]pyridazine-3-carboxamide]	> 10	0.117
O=C(NCCN1CCOCC1)c1cnc2ccc(N3CCC[C@@H]3c3cccc(F)c3)nn12 [X-52]	> 10	0.058
CNC(=O)c1cnc2ccc(N3CCC[C@@H]3c3cccc(F)c3)nn12 [X-43]	> 10	0.046
CS(=O)(=O)N1CC[C@H](NC(=O)c2cnc3ccc(N4CCC[C@@H]4c4cccc(F)c4)nn23)C1 [X-30]	> 10	0.031
O=C(NCc1ccccc1F)c1cnc2ccc(N3CCC[C@@H]3c3cccc(F)c3)nn12 [X-69]	> 10	0.104
CS(=O)(=O)N1CC[C@@H](NC(=O)c2cnc3ccc(N4CCC[C@@H]4c4cccc(F)c4)nn23)C1 [X-70]	> 10	0.293

Structure (SMILES)	IC50 (parental Ba/F3 cells) [µM]	IC50 [1] [µM]
C[C@H](O)C(=O)N1CCC(NC(=O)c2cnc3ccc(N4CCC[C@@H]4c4cccc(F)c4)nn23)CC1 [X-34]	> 10	0.076
NC(=O)c1cnc2ccc(N3CC=C[C@@H]3c3cccc(F)c3)nn12 [X-15, (R)-6-(2-(3-fluorophenyl)-2,5-dihydro-1H-pyrrol-1-yl)imidazo[1,2-b]pyridazine-3-carboxamide]	7.26	0.013
CCNC(=O)c1cnc2ccc(N3CCC[C@@H]3c3cccc(F)c3)nn12 [X-55]	> 9.62	0.007
O=C(NCc1cccc(N2CCOCC2)n1)c1cnc2ccc(N3CCC[C@@H]3c3cccc(F)c3)nn12 [X-25]	> 8.99	0.037
O=C(NC1CCN(C(=O)CO)CC1)c1cnc2ccc(N3CCC[C@@H]3c3cccc(F)c3)nn12 [X-75, (R)-6-(2-(3-fluorophenyl)pyrrolidin-1-yl)-N-(1-(2-hydroxyacetyl)piperidin-4-yl)imidazo[1,2-b]pyridazine-3-carboxamide]	> 10	0.098
[2H]C1(c2cccc(F)c2)CCCN1c1ccc2ncc(C(=O)OCC)n2n1 (stereo not shown) [X-162]	> 10	0.08
CC(C)[C@H](CO)NC(=O)c1cnc2ccc(N3CCC[C@@H]3c3cccc(F)c3)nn12 [X-102]	> 10	0.031
NCC(=O)Nc1cnc2ccc(N3CC(F)(F)C[C@@H]3c3cccc(F)c3)nn12 [X-204, (R)-2-amino-N-(6-(4,4-difluoro-2-(3-fluorophenyl)pyrrolidin-1-yl)imidazo[1,2-b]pyridazin-3-yl)acetamide]	> 10	0.028
[2H]C1(c2cccc(F)c2)CCCN1c1ccc2ncc(C(N)=O)n2n1 (stereo not shown) [X-8, 6-(2-(3-fluorophenyl)pyrrolidin-1-yl)imidazo[1,2-b]pyridazine-3-carboxamide]	> 10	0.15
NC(=O)c1cnc2ccc(N3CCC[C@@H]3c3cccc(F)c3)nn12 [X-6]	> 10	0.051
O=C(COc1ccc(F)cc1)Nc1cnc2ccc(N3CCC[C@@H]3c3cccc(F)c3)nn12 [X-26]	> 10	0.085
CC(=O)O[C@@H](C)C(=O)N1CCC(NC(=O)c2cnc3ccc(N4CCC[C@@H]4c4cccc(F)c4)nn23)CC1 [X-33]	> 10	0.105
O=C(NCCCCO)c1cnc2ccc(N3CCC[C@@H]3c3cccc(F)c3)nn12 [X-20]	> 10	0.03
CC(C)(C)[C@@H](CO)NC(=O)c1cnc2ccc(N3CCC[C@@H]3c3cccc(F)c3)nn12 [X-103]	> 10	0.379
O=C(N[C@@H]1CCC[C@H]1O)c1cnc2ccc(N3CCC[C@@H]3c3cccc(F)c3)nn12 [X-81]	> 10	0.012
CCOC(=O)c1cnc2ccc(N3CCC[C@@H]3c3cccc(F)c3)nn12 [X-158, (R)-ethyl 6-(2-(3-fluorophenyl)pyrrolidin-1-yl)imidazo[1,2-b]pyridazine-3-carboxylate]	> 10	0.093
O=C(NOCCO)c1cnc2ccc(N3CCC[C@@H]3c3cccc(F)c3)nn12 [X-147]	> 10	0.031
O=C(NCc1cccc(F)c1)c1cnc2ccc(N3CCC[C@@H]3c3cccc(F)c3)nn12 [X-74]	> 10	0.07
O=C(NC1CCCOC1)c1cnc2ccc(N3CCC[C@@H]3c3cccc(F)c3)nn12 (stereo partly shown) [X-97]	> 10	0.008
[2H]C1([2H])C(c2cccc(F)c2)N(c2ccc3ncc(C(=O)OCC)n3n2)C([2H])([2H])C1([2H])[2H] (stereo not shown) [X-161]	> 10	0.063
[2H]C1([2H])N(c2ccc3ncc(C(N)=O)n3n2)C([2H])(c2cccc(F)c2)C([2H])([2H])C1([2H])[2H] (stereo not shown) [X-13]	> 10	0.11
CC(NC(=O)c1cnc2ccc(N3CCC[C@@H]3c3cccc(F)c3)nn12)c1ccc(F)cc1 (stereo partly shown) [X-42]	> 9.57	0.127
CC(C)(Cc1ccc(F)cc1)NC(=O)c1cnc2ccc(N3CCC[C@@H]3c3cccc(F)c3)nn12 [X-41]	9	0.527
CC(C)(C)ONC(=O)c1cnc2ccc(N3CCC[C@@H]3c3cccc(F)c3)nn12 [X-145]	> 10	0.033
O=C(C=Cc1cccc(F)c1)c1cnc2ccc(N3CCC[C@@H]3c3cccc(F)c3)nn12 [X-126, (R)-3-(3-fluorophenyl)-1-(6-(2-(3-fluorophenyl)pyrrolidin-1-yl)imidazo[1,2-b]pyridazin-3-yl)prop-2-en-1-one]	1.09	0.022
